In patent US20080027088A1, “Imidazole-Based Hmg-Coa Reductase Inhibitors” (Warner-Lambert Company, LLC, priority 2004, published 2008):

Assays:
Type in all cases: in vivo
[1] = system: ApoE KO mice fed a Western diet; test: Plasma total cholesterol and triglyceride, 4 weeks myriocin diet admix
Description: (§1) Animal experiments—Male C57BI/6J and ApoE KO mice on C57BI/6J background were obtained from the Jackson Laboratory (Bar Harbor, Me.) or Taconic (Germantown, N.Y.) (Plaque formation in ApoE KO mice is lipid-driven (A. S. Plump et al., Cell. 1992;71 (2):343-53)). Myriocin was mixed with Western diet containing 0.21% cholesterol and 21% fat. 8-12-week-old mice received 0.3 mg myriocin/kg/day for 12 weeks (Table 1). 10-12 week-old ApoE KO mice (n=8) were pre-fed a western diet for 2 weeks and mice received various concentrations of myriocin for 4 weeks in diet admix. Control groups consisted of ApoE KO mice fed normal chow or Western diet without myriocin, and normal chow-fed C57BI/6J mice. Body weight and chow feeding was measured every week to examine the food consumption. For the femoral artery cuff model, 8-10 week-old male ApoE KO mice were anethetized and the right femoral artery was dissected from its surroundings. A nonconstrictive polyethylene cuff (Portex, 0.40-mm inner diameter, 0.80-mm outer diameter, and 1.5-mm length) was placed looselyaround the right femoral artery.
(§2) Plasma lipids and serum amyloid A measurement—Mice were sacrificed by CO2 inhalation and blood was collected through cardiac puncture. Plasma concentrations of total cholesterol and triglyceride were determined enzymatically on a Cobas Mira Plus auto-analyzer using Cholesterol R1 and Triglycerides Reagent methods, respectively (Roche Diagnostics, Indiana, USA). Colormetric changes were measured at 500 nm. Lipoproteins were separated from mouse plasma by fast-protein liquid chromatography utilizing a Superose 6HR column. Cholesterol distribution among lipoproteins was determined by in-line post column analysis (K. A. Kieft, T. M. Bocan and B. R. Krause, J. Lipid Res. 1991; 32:859-66). Serum Amyloid A (SAA) protein in plasma was measured by ELISA according to the manufacturer's instructions (Biosource).
FIG. 3. Plasma Cholesterol and Triglycerides in ApoE KO Mice Fed a Western Diet. After 4 weeks of diet admix myriocin treatment, mice were sacrificed and plasma was isolated. Plasma concentrations of total cholesterol (A) and triglyceride (B) were determined enzymatically on a Cobas Mira Plus auto-analyzer using Cholesterol R1 and Triglycerides Reagent methods, respectively. Colormetric changes were measured at 500 nm. The values reported are mean±SEM (n=8, *P<0.01).

[2] = system: ApoE KO mice fed a Western diet; test: Plasma total cholesterol and triglyceride, 12 weeks; conditions: 0.3 mg/kg/day
Description: as §1, with “For the femoral artery cuff model, 8-10 week-old male ApoE KO mice were anethetized and the right femoral artery was dissected from its surroundings. A nonconstrictive polyethylene cuff (Portex, 0.40-mm inner diameter, 0.80-mm outer diameter, and 1.5-mm length) was placed looselyaround the right femoral artery.” left out
as §2, with “Lipoproteins were separated from mouse plasma by fast-protein liquid chromatography utilizing a Superose 6HR column.” left out, “Serum Amyloid A (SAA) protein in plasma was measured by ELISA according to the manufacturer's instructions (Biosource).” left out
FIG. 7. […] Colormetric changes were measured at 500 nm. […]

[3] = system: ApoE KO mice fed a Western diet; test: Lipid deposition in en face aorta, Oil Red O staining, 12 weeks
Source text: Vascular pathology—For quantitative analysis of atherosclerotic lesion coverage, sacrificed mice were perfused with saline and the aorta was isolated from the heart to the iliac bifurcation by severing minor branching arteries and dissecting the adventitia. After 24 hrs of fixation with 10% buffered formalin, aorta was opened longitudinally and pinned down on the black wax. Lipids were stained with Oil Red O and photographs were taken. The percentage of aorta stained with Oil Red O was determined by image analysis software, Image Pro Plus.
FIG. 10. Lipid deposition in aortae of Western-diet fed ApoE KO mice. ApoE KO mice were fed with Western diet in the presence or absence of myriocin for 12 weeks. Mice were sacrificed and fixed with 10% buffered formalin for 24 hours. The aorta from heart to the iliac bifurcation was dissected, opened along the ventral surface and pinned down on a black wax background. Accumulated lipids were visualized by Oil Red O staining. Areas of the atherosclerotic lesion were quantified by using Image Pro Plus and represented as percentage of lesion area to total aorta area. The values reported are mean±SEM (n=4, WD vs. WD+myriocin or normal chow, *P<0.01; Normal vs. WD+myriocin, #P<0.01). Bar represents 1 cm.

[4] = system: ApoE KO mice fed a Western diet; test: Atherosclerotic lesion and macrophage area in aortic root and brachiocephalic artery, 12 weeks
Description: For histological analysis, the mice were perfused and fixed in Zinc-Tris fixative. Paraffin embedded sections were stained with Masson's Trichrome. Intimal macrophages were immunohistochemically stained using MAC-2 antibody (clone M3/38 from Cedarlane Laboratories Limited) counterstained with Verhoeff elastic stain. T-lymphocytes were immunohistochemically stained with rat CD3 antibody (clone CD3-12, Serotec). Lesion thickness and area occupied by macrophages were determined using Image Pro Plus software.
FIGS. 11 & 12. Formation of atherosclerotic lesions in aortic root and brachiocephalic artery. ApoE KO mice fed with Western-diet in the absence or presence of myriocin, ApoE KO mice and C57BI/6J mice fed with normal chow were sacrificed and fixed with Zinc-Tris. The cross-section of brachiocephalic artery was stained by Masson's Trichrome and MAC-2 antibody counterstained with Verhoeff elastic stain. Atherosclerotic lesion (black bars) and macrophage size (gray bars) in brachiocephalic artery and in aortic root were quantified by using Image Pro Plus. The values reported are mean±SEM (n=5, *P<0.01, WD vs WD plus myriocin; #P<0.01, normal vs WD plus myriocin). Bar represents 100 μm.

## CCCCCCC(=O)CCCCCC/C=C/C[C@@H](O)[C@H](O)[C@@](N)(CO)C(=O)O [myriocin]
[1]; 0.1 mg/kg/day
  effect on plasma TG levels: no effect
[1]; 0.1 mg/kg/day, vs no-myriocin control
  plasma cholesterol reduction: 46%
[1]; 0.3 mg/kg/day
  plasma TG levels lowered: 44%
[1]; 0.3 mg/kg/day, vs no-myriocin control
  plasma cholesterol decrease (maximum): 76%
[2]
  plasma TG lowered: 45%
  plasma cholesterol lowered: 41%
[3]; compared with normal chow-fed ApoE KO mice
  atherosclerotic lesion decreased, en face aorta (Oil Red O): 75%
[3]; vs Western diet-fed ApoE KO mice
  atherosclerotic lesion coverage reduced, en face aorta (Oil Red O): 93%
[4]; 0.3 mg/kg
  decrease in lesion area, brachiocephalic artery: 76%
  decrease in macrophage area, brachiocephalic artery: 74%
  lesion area decreased, aortic root: 44%
  macrophage area decreased, aortic root: 31%
[4]; myriocin-treated, Western diet-fed ApoE KO mice
  necrotic core in lesions: did not develop necrotic core
